Experimental data reported in US20260000658A1, “METHODS FOR THE TREATMENT OF PROLIFERATIVE GLOMERULONEPHRITIS” (INSTITUT NATIONAL DE LA SANTÉ ET DE LA RECHERCHE MÉDICALE, priority 2022, published 2026).

Columns and labels:
Type in all cases: in vivo, mouse
[1] = LC-MS analysis of alpelisib in kidneys after oral gavage; conditions: 2 hours after oral gavage
Protocol: Each tissue type was homogenized in 100% cold methanol with tissue-to-solvent ratio of 1-mg tissue to 5-μl methanol. After sonication of 20 s, the tissue extract was centrifuged at 13,000 g for 30 min and then injected onto a Phenomenex Kinetex XB-C18 HPLC column (100 mm by 2.1 mm) at 45° C. Alpelisib was analyzed by reverse-phase HPLC (Shimadzu LCMS system 8040 interfaced with the LabSolutions software). Twenty […] of tissue extracts were injected onto a column, and the mobile phase used for the separation consisted of two eluants: Solvent A was 0.1% formic acid in ddH20, and solvent B was acetonitrile with 0.1% of formic acid. Compounds were separated by the following discontinuous gradient at a flow rate of 0.6 ml/min: The initial concentration of 20% in solvent B increase to 70% over 6 min, and this was followed by a decrease to 20% over the next minute, and the initial conditions were then maintained for 14 min. The alpelisib was monitored spectrophotometrically by absorbance (photodiode detector) from 205 to 600 nm and by tandem mass detection. The mass measurement was implemented in positive ion mode using multiple reaction monitoring (MRM) with an electrospray ionization source. […] The quantification was done by integration of the peak absorbance area using a calibration curve established with various known concentrations of alpelisib. […]

[2] = system: PIK3CA^Pod-HO mice; test: PIK3CA^Pod-HO mice pilot study, vehicle or alpelisib; conditions: 3 months old
Protocol: (§1) For the uninephrectomy experiments, the right kidneys were removed under anesthesia. For the medical treatment of mice, 50 mg kg −1 alpelisib (MedChem Tronica) in 1% carboxymethylcellulose (Sigma Aldrich)+0.5% Tween (Sigma Aldrich) or vehicle (1% carboxymethylcellulose+0.5% Tween) was administered by oral gavage daily for the indicated periods of time. Blood and urines were obtained at the indicated times. At euthanasia, blood, urines, kidneys were harvested. In some experiments, spleens, hearts, and bone marrow (BM) in femurs and tibias were harvested as well. Tissues were fixed in 4% paraformaldehyde and paraffin embedded for immunohistochemical analysis, snap-frozen in Optimal Cutting Temperature (OCT), or stored at −80° C. for mRNA or protein analysis.
(§2) Mouse blood counts were analyzed using a hematology analyzer (ProCyte Dx; IDEXX Laboratories). Mouse serum creatinine, blood urea nitrogen, urinary albumin, and urinary creatinine were evaluated using an AU5800 (Beckman Coulter) autoanalyzer. Serum anti-dsDNA measurement was performed according to the manufacturer's instruction using mouse anti-dsDNA ELISA kit (LBIS). The absorbance was measured using Ininite M Nano (TECAN).
(§3) 4-μm kidney sections were stained with periodic acid-Schiff (PAS), Masson's Trichrome (MT), Periodic acid metenamine silver (PAM) or Hematoxylin and Eosin (HE) staining for histological analysis. The degree of glomerular lesions was evaluated using the following scoring system: 0=no lesion, 1=affecting up to 25% of the glomerulus, 2=affecting 25-50% of the glomerulus, 3=affecting 50-75% of the glomerulus, and 4=affecting 75-100%. At least 50 glomeruli per sample were measured for each analysis. An indirect immunoperoxidase method was used for immunohistochemistry. Briefly, after deparaffinization, antigen retrieval was performed with citrate buffer (pH6) or Tris-EDTA buffer (pH9 or pH6) using microwave or high temperature (95° C.). Endogenous peroxidase activity was quenched using 3% hydrogen peroxide; nonspecific protein binding was blocked using 2.5% normal horse serum (Vector Laboratories), and endogenous biotin activity was quenched using the Avidin/Biotin Blocking Kit (Vector Laboratories). When using mouse primary antibodies on mouse tissue, Klear mouse blocking reagent (Diagomics) was used to block endogenous mouse immunoglobulins. After blocking, the tissue sections were incubated with the primary antibodies overnight at 4° C. The following primary antibodies were used: rabbit anti-Ki67 antibody (SP6; Thermo Fisher Scientific), rabbit anti-P-S6RP antibody (D68F8; Cell Signaling Technology), mouse anti-P-AKT (Ser473) antibody (587F11; Cell Signaling Technology), rabbit anti-P-AKT (Thr308) antibody (C31E5E; Cell Signaling Technology), mouse anti-S6RP antibody (54E2; Cell Signaling Technology), chicken anti-GFP antibody (Abcam), guinea pig anti-Nephrin antibody (GP-N2; Progen), rabbit anti-Podocin antibody (P0372; Sigma Aldrich), mouse anti-WTI antibody (6F-H2; DAKO). The corresponding secondary antibodies including anti-mouse IgG, anti-rabbit IgG, anti-guinea pig IgG, biotinylated anti-rabbit IgG (Vector Laboratories), and biotinylated anti-mouse IgG (Vector Laboratories) were applied. For Avidin/Biotin detection, an R.T.U. Vectastain Kit (Vector Laboratories) or streptavidin (Thermo Fisher Scientific) was used. The immunoreactive antigens sites were detected with hydrogen peroxide and diaminobenzidine. […]

[3] = system: MRL-lpr mice; test: MRL-lpr mice, 12 weeks old, treated for 4 weeks
Protocol: as §1, §2
as §3, with “diaminobenzidine. For frozen immunofluorescent staining, frozen tissue sections (4 μm) were briefly air dried and fixed in 50% methanol/50% acetone. The sections were then blocked with 2.5% normal horse serum and incubated with primary antibodies: guinea pig anti-Nephrin antibody (GP-N2; Progen) overnight at 4° C. The sections were then incubated at room temperature for 40 min with secondary antibodies: fluorescein isothiocyanate-conjugated (FITC) anti-mouse IgG (Sigma Aldrich), FITC anti-mouse IgM (BD Biosciences), or FITC anti-mouse C3 antibody (abcam).” for “diaminobenzidine.”

Cc1nc(NC(=O)N2CCC[C@H]2C(N)=O)sc1-c1ccnc(C(C)(C)C(F)(F)F)c1 [alpelisib, Alpelisib]
alpelisib in kidneys (LC-MS) [1]: detectable | albuminuria ([2]; 2 consecutive weeks): progressive albuminuria reduction | AKT/mTOR pathway in podocytes ([2]; 2 weeks): blunted | glomerulus proliferation (Ki67) ([2]; 2 weeks): decrease in glomerulus proliferation | podocyte differentiation markers, protein levels ([2]; 2 weeks): still expressed | glomeruli, kidney histological analysis ([2]; 2 weeks, vs vehicle): preserved glomeruli | proteinuria ([3]; 12 weeks old females, 4 consecutive weeks): proteinuria reduction | Cola1 and Cola3 mRNA expression ([3]; 12 weeks old, 4 weeks): improved | dsDNA antibodies ([3]; 12 weeks old, 4 weeks): significantly reduced | glomerular AKT/mTOR pathway ([3]; 12 weeks old, 4 weeks): inhibited | glomerular lesion score ([3]; 12 weeks old, 4 weeks): improved | expression of podocyte differentiation markers ([3]; vs vehicle): increased
